# Values joined by “and” are separate entries in the source; they are usually repeats but may differ in a detail not shown here. Equal entries are not always repeated. Numbers after ± are expanded uncertainties.
# Conditions: Liquid, Ebulliometric method (Recirculating still)
SMILES,vapor or sublimation pressure (355.7 K),vapor or sublimation pressure (373.1 K) [kPa]
CC(C)O [propan-2-ol],101.3 ± 1.4 kPa and 101.32 ± 10 kPa,
O [water],,101.3 ± 1.4
